The source of these data is patent US8466291B2, “1,5-dideoxy-1,5-imino-D-glucitol compounds” (Academia Sinica, priority 2008, dated 2013).

In this experiment the target is Bacteroids fragilis O-GlcNAcase (Bacteroides fragilis, UniProt Q5L8V6). Put plainly: Michaelis-Menten/Lineweaver-Burk kinetic inhibition of O-GlcNAcase with 4MU-NAG substrate. The experiment is classed as biochemical. As for the experimental part:
Bacteroids fragilis O-GlcNAcase, which is highly homologous to human O-GlcNAcase, was prepared as follows. Based on the genome sequence of B. fragilis (NCTC 9343) as disclosed in GenBank accession no. CR626927 (Oct. 23, 2008), a DNA fragment encoding the B. fragilis O-GlcNAcse was amplified via polymerase chain reaction (PCR), using the primers of: 5′-[…]-3′ (SEQ ID NO:1) (forward primer) and 5′-[…]-3′ (SEQ ID NO:2) (reverse primer). The PCR product was cloned into pGEM-T Easy vector (Promega) via cloning sites Nde1 and Xho1 and then subcloned into pET21b vector to produce expression plasmid pOGA, which encodes a fusion protein including O-GlcNAcase and a His6 tag at the C-terminus
Plasmid pOGA was transformed into E. coli BL21 (DE3) cells and a positive transformant was cultured in Luria-Bertani (LB) medium with ampicillin (100 μg/mL) overnight. The E. coli culture, transferred to fresh LB medium, was incubated at 37° C. and, when A600 of the culture reached 0.6, isopropyl-β-D-thiogalactopyranoside (final conc: 250 μM) was added to induce expression of O-GlcNAcse. The induced cells were further cultured at 16° C. overnight, harvested, and disrupted to produce a cell lysate. Upon centrifugation, the supernatant thus obtained was loaded onto a nickel-affinity column. After elution, a fraction containing O-GlcNAcse was collected and the enzyme contained therein was further purified by gel filtration using a Superdex 6 column. See Dennis et al., Nat Struct Mol Biol 2006, 13: 365-71. The purified protein was concentrated using a 10 kDa-cutoff concentrator and dialyzed against 20 mM HEPES (pH 7.5).
The reaction conditions for each enzyme are shown below:
O-GlcNAcase: reaction mixture (0.5 nM O-GlcNAcase (200 μL) in 50 mM citric acid, 100 mM NaCl, 0.1% BSA, 0.05-1.5 mM substrate, pH 4.25) was incubated at 30° C. for 25 minutes. The enzyme activity at different time points was determined by measuring the levels of the fluorescent signals (excitation wavelength: 360 nm; emission wavelength: 460 nm) released from 4-methylumbelliferone, a product of the enzyme reaction.
In these reactions, the substrate concentrations were three to five fold of the concentration used for determining KM (absent compounds) and the ratio between the enzyme and the compound was 0.1-0.5 nM to 0.3 nM-200 uM. The data thus obtained were analyzed by the Lineweaver-Burk plot. The K1 values were determined by the double reciprocal plot (1/V vs. 1/[S]). More specifically, the Km values for each enzyme in the presence of one of the test compounds first determined and these values were further plotted in view of the concentrations of the compound. K1 was determined by calculating the negative value of the resulting x-intercept. The selectivity of each compound was calculated by the formula: K1 O-GlcNAcase/K1 Hex B.

Each structure is given as a SMILES string.

Sequence of Bacteroids fragilis O-GlcNAcase (Q5L8V6 entry or part of it): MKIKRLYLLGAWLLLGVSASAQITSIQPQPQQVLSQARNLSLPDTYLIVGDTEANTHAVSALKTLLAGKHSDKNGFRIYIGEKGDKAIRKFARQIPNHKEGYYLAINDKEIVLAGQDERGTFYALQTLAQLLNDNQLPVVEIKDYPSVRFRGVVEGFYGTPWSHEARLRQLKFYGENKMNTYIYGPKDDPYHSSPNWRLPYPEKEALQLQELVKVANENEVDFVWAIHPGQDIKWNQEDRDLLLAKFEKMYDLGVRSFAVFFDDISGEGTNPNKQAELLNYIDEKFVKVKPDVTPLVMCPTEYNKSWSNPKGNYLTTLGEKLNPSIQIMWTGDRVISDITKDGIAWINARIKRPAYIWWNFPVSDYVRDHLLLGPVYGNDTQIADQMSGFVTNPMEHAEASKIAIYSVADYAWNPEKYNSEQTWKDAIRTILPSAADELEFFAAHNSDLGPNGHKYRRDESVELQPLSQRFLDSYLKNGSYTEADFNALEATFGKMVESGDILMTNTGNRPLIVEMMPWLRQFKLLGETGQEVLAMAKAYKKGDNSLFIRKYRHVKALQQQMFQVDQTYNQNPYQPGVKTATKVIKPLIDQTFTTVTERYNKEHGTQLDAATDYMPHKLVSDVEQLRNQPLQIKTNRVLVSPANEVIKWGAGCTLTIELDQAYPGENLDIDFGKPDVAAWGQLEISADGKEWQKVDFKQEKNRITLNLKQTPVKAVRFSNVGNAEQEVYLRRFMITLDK

With `CC(=O)NC1CN(CCCCCCCNC(=O)CCCCC2SCC3NC(=O)NC32)C(CO)C(O)C1O` (centres unmarked) [Compound 5], the affinity, expressed as Ki, was 69.6 ± 1.77 µM. For the same molecule, the “Selectivity (KI O-GlcNAcase/KI HEX)” value (Bacteroids fragilis O-GlcNAcase over human HEX B, Table 1) is given as 2,600.
